This note sets out measurements from patent US10093630B2, “Pyrazole compounds and methods of making and using same” (ABIDE THERAPEUTICS, INC., priority 2014, dated 2018).

What all share (assay): In vitro competitive activity-based protein profiling (gel-based, FP-Rh or HT-01 probe)
Holding throughout (type): biochemical

The target of experiment [1] is T1, ABHD6 (Mus musculus, UniProt Q8R2Y0).
T1 construct: Proteomes (mouse brain membrane fraction or cell lysates); from tissue; host or cells: mouse brain membrane fraction (or cell lysates, not specified)
T1 sequence (Q8R2Y0 1-336): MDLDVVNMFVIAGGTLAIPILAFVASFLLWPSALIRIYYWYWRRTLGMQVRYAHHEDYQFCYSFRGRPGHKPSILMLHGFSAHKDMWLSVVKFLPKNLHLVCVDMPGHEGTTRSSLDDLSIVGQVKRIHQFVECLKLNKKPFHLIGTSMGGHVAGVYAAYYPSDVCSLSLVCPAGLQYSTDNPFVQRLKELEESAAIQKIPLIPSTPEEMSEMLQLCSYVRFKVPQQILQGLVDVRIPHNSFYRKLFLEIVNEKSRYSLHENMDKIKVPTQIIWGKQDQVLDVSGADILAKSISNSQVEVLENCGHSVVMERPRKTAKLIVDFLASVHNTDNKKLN
The conditions noted are these: for inhibition at 1 µM: 1 μM inhibitor, read-out: % Inhibition at 1 μM, C = ABHD6; for inhibition at 10 µM: 10 μM inhibitor, read-out: % Inhibition at 10 μM, C = ABHD6; for IC50: mouse brain membrane fraction or cell lysates, 30 min preincubation at 37° C., read-out: Mouse (IC50 value, nM) ABHD6. The method in brief:
(§1)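 Steps: inhibitor dilutions + proteome (1.0 mg/mL), 30 min, 37° C; add FP-Rh or HT-01 (50 μM DMSO stock), 30 min, 37° C; quench in SDS buffer; SDS-PAGE; gel imaging; band densitometry.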

The target of experiment [2] is T2, FAAH (Mus musculus, UniProt O08914).
T2 construct: Proteomes (mouse brain membrane fraction or cell lysates); from tissue; host or cells: mouse brain membrane fraction (or cell lysates, not specified)
T2 sequence (O08914 1-579): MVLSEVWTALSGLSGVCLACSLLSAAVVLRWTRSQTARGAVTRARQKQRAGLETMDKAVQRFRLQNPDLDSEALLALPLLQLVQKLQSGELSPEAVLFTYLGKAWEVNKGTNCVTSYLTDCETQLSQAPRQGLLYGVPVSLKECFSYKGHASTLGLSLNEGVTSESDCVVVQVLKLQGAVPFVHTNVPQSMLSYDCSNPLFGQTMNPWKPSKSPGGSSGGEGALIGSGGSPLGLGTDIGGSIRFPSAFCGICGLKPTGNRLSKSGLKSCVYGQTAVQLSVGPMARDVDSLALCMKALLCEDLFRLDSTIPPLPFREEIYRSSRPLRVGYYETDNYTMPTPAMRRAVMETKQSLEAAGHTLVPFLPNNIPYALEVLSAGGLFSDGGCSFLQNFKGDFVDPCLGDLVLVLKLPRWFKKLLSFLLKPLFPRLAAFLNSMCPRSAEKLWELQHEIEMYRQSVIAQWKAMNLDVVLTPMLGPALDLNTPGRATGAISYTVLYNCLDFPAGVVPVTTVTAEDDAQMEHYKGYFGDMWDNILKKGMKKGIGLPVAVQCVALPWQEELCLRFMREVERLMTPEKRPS
The conditions noted are these: for inhibition at 1 µM: 1 μM inhibitor, read-out: % Inhibition at 1 μM, B = FAAH; for inhibition at 10 µM: 10 μM inhibitor, read-out: % Inhibition at 10 μM, B = FAAH; for IC50: mouse brain membrane fraction or cell lysates, 30 min preincubation at 37° C., read-out: Mouse (IC50 value, nM) FAAH. The method in brief: as §1

The target in experiment [3] is T3, MAGL (Mus musculus, UniProt O35678).
T3 construct: Proteomes (mouse brain membrane fraction or cell lysates); from tissue; host or cells: mouse brain membrane fraction (or cell lysates, not specified)
T3 sequence (O35678 1-303): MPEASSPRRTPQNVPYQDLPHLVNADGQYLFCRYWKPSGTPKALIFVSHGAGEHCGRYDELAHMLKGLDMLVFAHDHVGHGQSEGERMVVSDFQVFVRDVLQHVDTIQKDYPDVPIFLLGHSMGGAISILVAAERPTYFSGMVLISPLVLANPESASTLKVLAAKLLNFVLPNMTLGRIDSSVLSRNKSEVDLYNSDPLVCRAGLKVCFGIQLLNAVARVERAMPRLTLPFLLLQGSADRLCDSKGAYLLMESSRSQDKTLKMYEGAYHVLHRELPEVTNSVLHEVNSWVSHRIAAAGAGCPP
Conditions: for inhibition at 1 µM: 1 μM inhibitor; for inhibition at 10 µM: 10 μM inhibitor; for IC50: mouse brain membrane fraction or cell lysates, 30 min preincubation at 37° C., read-out: Mouse (IC50 value, nM) MAGL. Summed up:
as §1

Experiment [4] deals with T4, PLA2G7 (Mus musculus, UniProt Q60963).
T4 construct: Proteomes (mouse brain membrane fraction or cell lysates); from tissue; host or cells: mouse brain membrane fraction (or cell lysates, not specified)
T4 sequence (Q60963 22-440): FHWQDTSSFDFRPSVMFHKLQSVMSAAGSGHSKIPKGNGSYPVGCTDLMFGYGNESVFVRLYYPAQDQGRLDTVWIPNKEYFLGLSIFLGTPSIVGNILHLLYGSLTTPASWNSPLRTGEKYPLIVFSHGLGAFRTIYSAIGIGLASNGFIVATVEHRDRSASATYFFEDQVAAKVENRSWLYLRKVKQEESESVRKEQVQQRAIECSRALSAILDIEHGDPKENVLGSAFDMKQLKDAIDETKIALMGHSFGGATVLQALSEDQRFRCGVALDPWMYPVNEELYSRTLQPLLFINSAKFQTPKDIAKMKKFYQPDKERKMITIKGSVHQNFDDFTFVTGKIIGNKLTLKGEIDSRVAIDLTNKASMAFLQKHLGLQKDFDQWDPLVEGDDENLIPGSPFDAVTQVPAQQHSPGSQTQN
The conditions noted are these: for inhibition at 1 µM: 1 μM inhibitor, read-out: % Inhibition at 1 μM, D = PLA2G7; for inhibition at 10 µM: 10 μM inhibitor, read-out: % Inhibition at 10 μM, D = PLA2G7; for IC50: mouse brain membrane fraction or cell lysates, 30 min preincubation at 37° C. Summed up:
as §1

Read-outs that look alike come from different tables or passages of the source.

Usually inhibition stands for the change of the read-out against control, counted positive when it falls. As for `CC(=O)N1CCN(C(=O)n2cc(C)cn2)CC1` [Example 161, 1-(4-(4-Methyl-1H-pyrazole-1-carbonyl)piperazin-1-yl)ethanone], the inhibition at 1 µM in experiment [1], in experiment [2], in experiment [3] and in experiment [4] was less than 25% each time. Moreover, the inhibition at 10 µM in experiment [1] was less than 25%; in experiment [2], less than 25%; in experiment [3], less than 25%; in experiment [4], more than 75%.
A word on the IC50: it is the concentration needed to halve the response being measured. Regarding `O=C(N1CCN(Cc2cccc(N3CCOCC3)c2)CC1)n1cc(C(F)(F)F)cn1` [Example 274, (4-(3-Morpholinobenzyl)piperazin-1-yl)(4-(trifluoromethyl)-1H-pyrazol-1-yl)methanone], the inhibition at 1 µM in experiment [1] (gel-based competitive ABPP), in experiment [2] (gel-based competitive ABPP), in experiment [3] (gel-based competitive ABPP) and in experiment [4] (gel-based competitive ABPP) was more than 75% in each case. Moreover, the IC50 in experiment [1] was less than 100 nM; in experiment [2], 100 to 1000 nM; in experiment [3] it was less than 100 nM; in experiment [4] it was less than 100 nM.
For `Cc1cnn(C(=O)N2CCN(C(=O)c3ccccc3)CC2)c1` [Example 164, (4-Benzoylpiperazin-1-yl)(4-methyl-1H-pyrazol-1-yl)methanone], the inhibition at 1 µM in experiment [1], in experiment [2], in experiment [3] and in experiment [4] was less than 25% in each case. In addition, the inhibition at 10 µM is less than 25% in experiment [1], less than 25% in experiment [2], 25 to 75% in experiment [3] and more than 75% in experiment [4].
On to `CCN(Cc1ccc(OC)cc1)C(=O)n1cc(C(F)(F)F)cn1` [Example 259, N-Ethyl-N-(4-methoxybenzyl)-4-(trifluoromethyl)-1H-pyrazole-1-carboxamide], for which the inhibition at 1 µM is less than 25% in experiment [1] (gel-based competitive ABPP), more than 75% in experiment [2] (gel-based competitive ABPP), more than 75% in experiment [3] (gel-based competitive ABPP) and less than 25% in experiment [4] (gel-based competitive ABPP). Moreover, the IC50 in experiment [1] was more than 1000 nM; in experiment [2], less than 100 nM; in experiment [3], more than 1000 nM; in experiment [4], more than 1000 nM.
Consider `O=C(c1cnn(C(=O)N2CCN(Cc3ccc4c(c3)OCO4)CC2)c1)N1CCCC1` [Example 78, (4-(Benzo[d][1,3]dioxol-5-ylmethyl)piperazin-1-yl)(4-(pyrrolidine-1-carbonyl)-1H-pyrazol-1-yl)methanone], for which the inhibition at 1 µM is more than 75% in experiment [1], more than 75% in experiment [2], less than 25% in experiment [3] and less than 25% in experiment [4]. The inhibition at 10 µM in experiment [1], in experiment [2], in experiment [3] and in experiment [4] was more than 75% in each case.
In the case of `Cc1cnn(C(=O)N2CCN(Cc3ccccc3)CC2)c1` [Example 8, (4-Benzylpiperazin-1-yl)(4-methyl-1H-pyrazol-1-yl)methanone], the inhibition at 1 µM in experiment [1] is more than 75%; in experiment [2], less than 25%; in experiment [3] it was 25 to 75%; in experiment [4], less than 25%. In addition, the inhibition at 10 µM is more than 75% in experiment [1], 25 to 75% in experiment [2], more than 75% in experiment [3] and more than 75% in experiment [4].
`O=C(c1cnn(C(=O)N2CCN(Cc3cncnc3)CC2)c1)N1CCCCC1` [Example 75, Piperidin-1-yl(1-(4-(pyrimidin-5-ylmethyl)piperazine-1-carbonyl)-1H-pyrazol-4-yl)methanone]: the inhibition at 1 µM in experiment [1] is less than 25%; in experiment [2] it was less than 25%; in experiment [3], less than 25%; in experiment [4], more than 75%. Also, the inhibition at 10 µM in experiment [1] was more than 75%; in experiment [2], less than 25%; in experiment [3] it was less than 25%; in experiment [4] it was more than 75%.
Regarding `Cc1cc(-c2ccccc2)ccc1CN1CCN(C(=O)n2cc(C(F)(F)F)cn2)CC1` [Example 142, (4-((3-Methylbiphenyl-4-yl)methyl)piperazin-1-yl)(4-(trifluoromethyl)-1H-pyrazol-1-yl)methanone], the inhibition at 1 µM in experiment [1], in experiment [2], in experiment [3] and in experiment [4] was more than 75% each time. Moreover, the inhibition at 10 µM in experiment [1], in experiment [2], in experiment [3] and in experiment [4] was more than 75% in each case. The figures for the concentration for half-maximal inhibition (IC50) in experiment [1], in experiment [2] and in experiment [3] were 100 to 1000 nM, less than 100 nM and less than 100 nM, respectively.
As for `Cc1cnn(C(=O)N2CCN(Cc3ccc(Oc4ccccc4)cc3)CC2)c1` [Example 17, (4-Methyl-1H-pyrazol-1-yl)(4-(4-phenoxybenzyl)piperazin-1-yl)methanone], the inhibition at 1 µM in experiment [1] is more than 75%; in experiment [2], 25 to 75%; in experiment [3], more than 75%; in experiment [4], 25 to 75%. For the same compound, the inhibition at 10 µM is more than 75% in experiment [1], more than 75% in experiment [2], more than 75% in experiment [3] and less than 25% in experiment [4].
For `Cc1cccc(CN2CCN(C(=O)n3cc(C(F)(F)F)cn3)CC2)c1` [Example 270, (4-(3-Methylbenzyl)piperazin-1-yl)(4-(trifluoromethyl)-1H-pyrazol-1-yl)methanone], the inhibition at 1 µM in experiment [1] (gel-based competitive ABPP), in experiment [2] (gel-based competitive ABPP), in experiment [3] (gel-based competitive ABPP) and in experiment [4] (gel-based competitive ABPP) was more than 75% in each case.
Regarding `O=C(N1CCN(C(c2ccc(Cl)cc2)c2ccc(Cl)cc2)CC1)n1cc(-c2ccc(C(F)(F)F)cc2)cn1` [Example 124, (4-(Bis(4-chlorophenyl)methyl)piperazin-1-yl)(4-(4-(trifluoromethyl)phenyl)-1H-pyrazol-1-yl)methanone], the inhibition at 1 µM in experiment [1] is more than 75%; in experiment [4], 25 to 75%. Further, the inhibition at 10 µM in experiment [1] was more than 75%; in experiment [2], less than 25%; in experiment [3] it was 25 to 75%; in experiment [4] it was more than 75%.
